Data published in US20240158393A1, “PYRIDONE COMPOUNDS AND METHODS OF USE” (Exelixis, Inc., priority 2021, published 2024).
pIC50: −log10 of the molar value. Structures can show the parent of a compound that is named as a salt.

biological target: T1, Human KDR (Homo sapiens, UniProt P35968); experiment: Human KDR kinase assay (33P radiometric / HTRF KinEase); type: biochemical; details: protocols of Examples B-1 and/or B-2
T1 construct: Human KDR (residues K790-V1356, 55 nM); purchased Eurofins Pharma Discovery Services UK Limited (KinaseProfiler, B-1) and/or CarnaBio (B-2)
Summary of the method: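 Radiometric: KDR K790-V1356 (55 nM), MOPS pH 7.0, myelin basic protein, 10 μM [γ-33P]ATP, 40 min at room temperature, filter-bound 33P counted; nine half-log doses, top 1 μM. HTRF: KDR 790-1356, 1 μM biotinylated peptide, ATP at Km (4.0 μM), 40 min, 10 doses. IC50 from logistic fits.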

T1 sequence (P35968 790-1356): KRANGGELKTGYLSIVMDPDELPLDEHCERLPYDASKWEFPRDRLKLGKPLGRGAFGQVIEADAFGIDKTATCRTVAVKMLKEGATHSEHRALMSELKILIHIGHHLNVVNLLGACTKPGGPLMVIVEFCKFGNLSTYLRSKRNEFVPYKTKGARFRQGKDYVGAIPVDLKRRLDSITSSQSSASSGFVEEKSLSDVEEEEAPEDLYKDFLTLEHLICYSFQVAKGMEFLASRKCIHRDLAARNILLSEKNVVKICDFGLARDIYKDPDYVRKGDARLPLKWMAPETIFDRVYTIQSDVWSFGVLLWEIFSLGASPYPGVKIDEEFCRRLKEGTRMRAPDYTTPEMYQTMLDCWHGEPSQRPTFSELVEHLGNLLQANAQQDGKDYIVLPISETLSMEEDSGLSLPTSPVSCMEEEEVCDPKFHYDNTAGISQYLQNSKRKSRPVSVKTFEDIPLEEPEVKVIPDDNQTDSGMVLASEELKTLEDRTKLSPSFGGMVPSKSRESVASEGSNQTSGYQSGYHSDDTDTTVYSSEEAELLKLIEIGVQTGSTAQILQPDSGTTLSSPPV

Q: With `COCCOc1cc2nccc(Oc3ccc(NC(=O)c4c(C)n(C)c(C)c(/C=C/C5CCCC5)c4=O)cc3F)c2nc1OC` [Compound 54, 5-[(E)-2-Cyclopentylethenyl]-N-[3-fluoro-4-[[6-methoxy-7-(2-methoxyethoxy)-1,5-naphthyridin-4-yl]oxy]phenyl]-1,2,6-trimethyl-4-oxopyridine-3-carboxamide] as the compound, how does the pIC50 read?
A: 6.52 to 7.00

Q: `C=C(C)c1c(C)n(C)c(C)c(C(=O)Nc2ccc(Oc3ccnc4cc(OC)c(OC)nc34)cc2)c1=O` [Compound 55, N-[4-[(6,7-Dimethoxy-1,5-naphthyridin-4-yl)oxy]phenyl]-1,2,6-trimethyl-4-oxo-5-prop-1-en-2-ylpyridine-3-carboxamide] was tested. Which pIC50 did it give?
A: < 6.52

Q: How did the pIC50 turn out when `COCCOc1cnc2c(Oc3ccc(NC(=O)c4c(C)n(C)c(C)c(C5=CCCCC5)c4=O)cc3F)ccnc2c1` [Compound 66, 5-(Cyclohexen-1-yl)-N-[3-fluoro-4-[[7-(2-methoxyethoxy)-1,5-naphthyridin-4-yl]oxy]phenyl]-1,2,6-trimethyl-4-oxopyridine-3-carboxamide] was run?
A: < 6.52

Q: How did the pIC50 turn out when `C=C(C)c1c(C)n(C)c(C)c(C(=O)Nc2ccc(Oc3ccnc4cc(OC)c(OC)nc34)c(F)c2)c1=O` [Compound 52, N-[4-[(6,7-Dimethoxy-1,5-naphthyridin-4-yl)oxy]-3-fluorophenyl]-1,2,6-trimethyl-4-oxo-5-prop-1-en-2-ylpyridine-3-carboxamide] was run?
A: < 6.52

Q: How did the pIC50 turn out when `COc1cc2nccc(Oc3ccc(NC(=O)c4c(C)n(C)c(C)c(C5=CCOCC5)c4=O)cc3F)c2nc1OC` [Compound 53, 5-(3,6-Dihydro-2H-pyran-4-yl)-N-[4-[(6,7-dimethoxy-1,5-naphthyridin-4-yl)oxy]-3-fluorophenyl]-1,2,6-trimethyl-4-oxopyridine-3-carboxamide] was run?
A: < 6.52

Q: `COc1cc2nccc(Oc3ccc(NC(=O)c4c5n(cc(C6=CCCCC6)c4=O)CCOC5)cc3F)c2nc1OC` [Compound G1-4, 7-(Cyclohexen-1-yl)-N-[4-[(6,7-dimethoxy-1,5-naphthyridin-4-yl)oxy]-3-fluorophenyl]-8-oxo-3,4-dihydro-1H-pyrido[2,1-c][1,4]oxazine-9-carboxamide] was tested. Which pIC50 did it give?
A: ≥ 7.00

Q: `COc1nc2c(Oc3ccc(NC(=O)c4c(C)n(C)c(C)c(C5=CCCC5)c4=O)cc3F)ccnc2cc1OCCC1CCC1` [Compound 74, N-[4-[[7-(2-Cyclobutylethoxy)-6-methoxy-1,5-naphthyridin-4-yl]oxy]-3-fluorophenyl]-5-(cyclopenten-1-yl)-1,2,6-trimethyl-4-oxopyridine-3-carboxamide] was tested. Which pIC50 did it give?
A: ≥ 7.00

Q: With `COCCOc1cc2nccc(Oc3ccc(NC(=O)c4c(C)n(C)c(C)c(C5=CCCCC5)c4=O)cc3F)c2nc1OC` [Compound 58, 5-(Cyclohexen-1-yl)-N-[3-fluoro-4-[[6-methoxy-7-(2-methoxyethoxy)-1,5-naphthyridin-4-yl]oxy]phenyl]-1,2,6-trimethyl-4-oxopyridine-3-carboxamide] as the compound, how does the pIC50 read?
A: ≥ 7.00

Q: With `COc1cc2nccc(Oc3ccc(NC(=O)c4c5n(c(C)c(C6=CCOCC6)c4=O)CCOC5)cc3)c2nc1OC` [Compound 73, 7-(3,6-Dihydro-2H-pyran-4-yl)-N-[4-[(6,7-dimethoxy-1,5-naphthyridin-4-yl)oxy]phenyl]-6-methyl-8-oxo-3,4-dihydro-1H-pyrido[2,1-c][1,4]oxazine-9-carboxamide] as the compound, how does the pIC50 read?
A: < 6.52

Q: `COc1cc2nccc(Oc3ccc(NC(=O)c4cnc(C)c(C5=CCCCC5)c4O)cc3F)c2nc1OC` [Compound G1-3, 5-(Cyclohexen-1-yl)-N-[4-[(6,7-dimethoxy-1,5-naphthyridin-4-yl)oxy]-3-fluorophenyl]-4-hydroxy-6-methylpyridine-3-carboxamide] was tested. Which pIC50 did it give?
A: ≥ 7.00

Q: With `COCCOc1cnc2c(Oc3ccc(NC(=O)c4c(C)n(C)c(C)c(C5=CCCC5)c4=O)cc3F)ccnc2c1` [Compound 65, 5-(Cyclopenten-1-yl)-N-[3-fluoro-4-[[7-(2-methoxyethoxy)-1,5-naphthyridin-4-yl]oxy]phenyl]-1,2,6-trimethyl-4-oxopyridine-3-carboxamide] as the compound, how does the pIC50 read?
A: 6.52 to 7.00

Q: With `COc1cc2nccc(Oc3ccc(NC(=O)c4cnc(C)c(C5=CCCC5)c4O)cc3F)c2nc1OC` [Compound G1-2, 5-(Cyclopenten-1-yl)-N-[4-[(6,7-dimethoxy-1,5-naphthyridin-4-yl)oxy]-3-fluorophenyl]-4-hydroxy-6-methylpyridine-3-carboxamide hydrochloride] as the compound, how does the pIC50 read?
A: ≥ 7.00
